Laboratory results as given in ChEMBL document CHEMBL1201862, “PubChem BioAssay data set” (2004).
Calls of active or inactive are those of the source.

Experiments:
[1] = target: G-protein coupled receptor 55 (Homo sapiens, UniProt Q9Y2T6); assay: GPR55 agonists via beta-arrestin recruitment, primary screen, imaging, U2OS cells, beta-arrestin-GFP redistribution (AID 1961); type: functional
[2] = target: T1, Tyrosine-protein phosphatase non-receptor type 5 (Homo sapiens, UniProt P54829); assay: STEP phosphatase inhibitors, confirmation, biochemical, fluorescence intensity, uHTS hits (AID 602372); type: functional; details: read-out: IC50_Mean
T1 sequence (P54829 whole entry): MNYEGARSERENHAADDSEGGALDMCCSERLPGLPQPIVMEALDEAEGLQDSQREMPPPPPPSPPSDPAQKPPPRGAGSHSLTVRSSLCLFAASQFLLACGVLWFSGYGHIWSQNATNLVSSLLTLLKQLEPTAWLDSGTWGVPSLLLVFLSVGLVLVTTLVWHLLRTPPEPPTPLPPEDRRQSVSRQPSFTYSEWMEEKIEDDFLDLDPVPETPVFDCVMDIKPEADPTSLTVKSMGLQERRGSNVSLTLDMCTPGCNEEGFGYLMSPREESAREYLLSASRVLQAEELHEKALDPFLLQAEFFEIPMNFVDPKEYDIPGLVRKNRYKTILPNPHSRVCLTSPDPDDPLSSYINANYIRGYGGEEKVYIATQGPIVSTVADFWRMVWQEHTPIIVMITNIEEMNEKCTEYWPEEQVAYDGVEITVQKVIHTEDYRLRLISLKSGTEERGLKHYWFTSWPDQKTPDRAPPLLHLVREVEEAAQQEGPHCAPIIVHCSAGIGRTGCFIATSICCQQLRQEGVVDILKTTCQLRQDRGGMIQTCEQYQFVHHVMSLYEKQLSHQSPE

[3] = target: T2, Tyrosine-protein phosphatase non-receptor type 22 (Homo sapiens, UniProt Q9Y2R2); assay: PTPN22 phosphatase inhibition, dose response, selectivity assay for STEP inhibitor project, biochemical (AID 624241); type: functional
T2 sequence (Q9Y2R2 whole entry): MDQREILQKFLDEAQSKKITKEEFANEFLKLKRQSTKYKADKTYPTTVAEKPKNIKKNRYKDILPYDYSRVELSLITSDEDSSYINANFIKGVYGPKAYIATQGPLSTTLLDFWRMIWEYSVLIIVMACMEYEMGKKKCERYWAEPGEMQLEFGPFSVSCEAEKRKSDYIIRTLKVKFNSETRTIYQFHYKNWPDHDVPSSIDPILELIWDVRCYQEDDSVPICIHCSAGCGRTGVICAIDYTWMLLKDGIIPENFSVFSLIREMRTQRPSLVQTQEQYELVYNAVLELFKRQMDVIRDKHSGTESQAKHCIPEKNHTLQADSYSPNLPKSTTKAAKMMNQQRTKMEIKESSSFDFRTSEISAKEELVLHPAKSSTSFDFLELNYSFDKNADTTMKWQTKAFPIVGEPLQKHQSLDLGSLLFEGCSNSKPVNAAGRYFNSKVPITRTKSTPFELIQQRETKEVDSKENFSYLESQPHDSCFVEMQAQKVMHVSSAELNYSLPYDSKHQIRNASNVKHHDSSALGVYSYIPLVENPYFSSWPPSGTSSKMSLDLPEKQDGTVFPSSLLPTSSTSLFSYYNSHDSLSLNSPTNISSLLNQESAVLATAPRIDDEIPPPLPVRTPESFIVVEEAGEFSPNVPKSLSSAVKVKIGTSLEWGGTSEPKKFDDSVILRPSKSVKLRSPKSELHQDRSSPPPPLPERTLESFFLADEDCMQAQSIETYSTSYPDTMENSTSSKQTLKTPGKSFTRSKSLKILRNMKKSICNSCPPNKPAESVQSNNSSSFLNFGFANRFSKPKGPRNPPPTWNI

[4] = target: DNA dC->dU-editing enzyme APOBEC-3G (Homo sapiens, UniProt Q9HC16); assay: Dose Response confirmation of small molecule APOBEC3G DNA Deaminase Inhibitors via a fluorescence-based single-stranded DNA deaminase assay. [Related pubchem assays (depositor defined):AID493012, AID493028]; type: functional
Chain of DNA dC->dU-editing enzyme APOBEC-3G (Q9HC16 whole entry): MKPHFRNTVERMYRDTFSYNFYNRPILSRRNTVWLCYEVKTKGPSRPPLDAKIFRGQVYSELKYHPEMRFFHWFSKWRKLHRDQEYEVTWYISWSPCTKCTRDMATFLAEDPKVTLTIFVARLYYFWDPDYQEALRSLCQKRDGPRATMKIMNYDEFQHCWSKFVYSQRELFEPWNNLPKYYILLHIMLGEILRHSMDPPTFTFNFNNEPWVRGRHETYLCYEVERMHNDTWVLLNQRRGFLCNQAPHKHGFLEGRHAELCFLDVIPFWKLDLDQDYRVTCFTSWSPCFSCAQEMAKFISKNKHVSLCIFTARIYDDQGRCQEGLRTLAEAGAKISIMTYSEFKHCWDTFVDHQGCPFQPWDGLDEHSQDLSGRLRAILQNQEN

[5] = target: T3, Dual specificity protein phosphatase 6 (Rattus norvegicus, UniProt Q64346); assay: MKP-3 phosphatase inhibitors, primary screen, biochemical, rat enzyme, in vitro (AID 425)
T3 sequence (Q64346 whole entry): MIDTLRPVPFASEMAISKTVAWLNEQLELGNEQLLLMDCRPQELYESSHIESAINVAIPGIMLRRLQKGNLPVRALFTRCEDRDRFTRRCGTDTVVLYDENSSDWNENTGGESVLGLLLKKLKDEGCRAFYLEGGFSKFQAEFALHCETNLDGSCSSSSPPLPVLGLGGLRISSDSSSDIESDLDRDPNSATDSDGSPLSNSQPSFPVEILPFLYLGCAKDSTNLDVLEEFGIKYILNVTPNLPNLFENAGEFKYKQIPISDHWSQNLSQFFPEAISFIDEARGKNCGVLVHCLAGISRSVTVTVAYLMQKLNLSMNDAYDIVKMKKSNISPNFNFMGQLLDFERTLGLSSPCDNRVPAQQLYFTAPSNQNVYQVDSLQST

[6] = target: T4, Dual specificity protein phosphatase 3 (Homo sapiens, UniProt P51452); assay: VHR1 phosphatase inhibitors, biochemical (AID 1878)
T4 sequence (P51452 whole entry): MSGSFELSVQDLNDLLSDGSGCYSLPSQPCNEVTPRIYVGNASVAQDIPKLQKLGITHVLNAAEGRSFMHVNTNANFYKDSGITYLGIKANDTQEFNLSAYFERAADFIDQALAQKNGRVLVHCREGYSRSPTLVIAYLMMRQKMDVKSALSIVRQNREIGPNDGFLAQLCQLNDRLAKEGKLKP

[7] = target: T4, Dual specificity protein phosphatase 3; assay: VHR1 phosphatase inhibitors, primary screen, biochemical, absorbance, uHTS (AID 1654)
[8] = target: Glucose-6-phosphate 1-dehydrogenase (Homo sapiens, UniProt P11413); assay: human G6PD enzyme inhibitors, dose response, selectivity assay for P. falciparum G6PD inhibitor project, biochemical, fluorescence (AID 504792); type: functional
Chain of Glucose-6-phosphate 1-dehydrogenase (P11413 whole entry): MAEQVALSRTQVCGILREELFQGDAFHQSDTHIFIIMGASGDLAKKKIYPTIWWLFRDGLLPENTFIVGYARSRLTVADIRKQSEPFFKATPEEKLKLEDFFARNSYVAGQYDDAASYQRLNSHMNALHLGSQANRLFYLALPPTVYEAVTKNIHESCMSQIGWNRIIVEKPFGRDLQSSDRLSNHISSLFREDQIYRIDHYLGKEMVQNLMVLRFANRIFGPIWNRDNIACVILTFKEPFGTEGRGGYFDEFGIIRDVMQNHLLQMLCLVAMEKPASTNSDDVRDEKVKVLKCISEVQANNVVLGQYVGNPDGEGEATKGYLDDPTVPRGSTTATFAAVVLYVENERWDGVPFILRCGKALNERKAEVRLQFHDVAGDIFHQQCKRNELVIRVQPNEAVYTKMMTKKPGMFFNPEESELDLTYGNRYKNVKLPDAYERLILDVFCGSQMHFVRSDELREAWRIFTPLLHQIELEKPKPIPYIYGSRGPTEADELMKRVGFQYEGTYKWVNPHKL

[9] = target: DNA dC->dU-editing enzyme APOBEC-3A (Homo sapiens, UniProt P31941); assay: APOBEC3A DNA deaminase inhibitors, dose response, biochemical (AID 504722); type: functional
Chain of DNA dC->dU-editing enzyme APOBEC-3A (P31941 whole entry): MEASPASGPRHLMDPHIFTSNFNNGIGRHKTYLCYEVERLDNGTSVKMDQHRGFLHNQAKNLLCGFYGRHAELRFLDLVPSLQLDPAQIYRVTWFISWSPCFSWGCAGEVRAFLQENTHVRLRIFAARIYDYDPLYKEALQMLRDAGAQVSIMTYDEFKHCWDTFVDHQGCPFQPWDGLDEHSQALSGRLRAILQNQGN

[10] = target: T4, Dual specificity protein phosphatase 3; assay: VHR phosphatase inhibition, dose response, selectivity assay for STEP inhibitor project, biochemical (AID 602374); type: functional; details: read-out: IC50_Mean
[11] = target: T5, Tyrosine-protein phosphatase non-receptor type 11 (Homo sapiens, UniProt Q06124); assay: SHP2 phosphatase inhibition, dose response, selectivity assay for STEP inhibitor project, biochemical (AID 602367); type: functional; details: read-out: IC50_Mean
T5 sequence (Q06124 whole entry): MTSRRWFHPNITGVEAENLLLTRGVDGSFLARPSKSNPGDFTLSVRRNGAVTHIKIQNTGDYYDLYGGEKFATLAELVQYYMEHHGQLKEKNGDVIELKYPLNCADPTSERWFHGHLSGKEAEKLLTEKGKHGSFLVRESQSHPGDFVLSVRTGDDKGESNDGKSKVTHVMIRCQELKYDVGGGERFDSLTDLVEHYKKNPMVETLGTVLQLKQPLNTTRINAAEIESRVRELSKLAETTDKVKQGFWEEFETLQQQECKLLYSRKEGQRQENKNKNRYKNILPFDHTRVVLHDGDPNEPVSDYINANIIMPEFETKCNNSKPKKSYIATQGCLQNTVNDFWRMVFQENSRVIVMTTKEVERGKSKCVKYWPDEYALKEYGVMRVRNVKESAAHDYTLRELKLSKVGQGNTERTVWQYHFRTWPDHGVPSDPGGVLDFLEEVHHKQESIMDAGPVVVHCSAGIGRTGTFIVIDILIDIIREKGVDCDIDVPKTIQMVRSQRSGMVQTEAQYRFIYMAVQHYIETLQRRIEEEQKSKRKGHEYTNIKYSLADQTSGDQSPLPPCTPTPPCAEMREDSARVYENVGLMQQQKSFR

Chain of G-protein coupled receptor 55 (Q9Y2T6 whole entry): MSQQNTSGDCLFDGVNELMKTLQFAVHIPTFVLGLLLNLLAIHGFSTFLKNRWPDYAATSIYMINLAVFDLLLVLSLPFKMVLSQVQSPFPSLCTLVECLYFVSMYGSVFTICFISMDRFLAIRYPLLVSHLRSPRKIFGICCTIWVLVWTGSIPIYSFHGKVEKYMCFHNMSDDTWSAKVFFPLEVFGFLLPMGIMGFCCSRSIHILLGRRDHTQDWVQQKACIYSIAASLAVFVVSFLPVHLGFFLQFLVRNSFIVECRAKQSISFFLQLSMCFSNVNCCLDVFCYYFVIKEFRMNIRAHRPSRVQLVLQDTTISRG

Row | Compound | EC50 [1] | IC50 [2] | IC50 [3] | IC50 [4] | IC50 [5] | IC50 [6] | IC50 [7] | IC50 [8] | IC50 [9] | IC50 [10] | IC50 [11]
1 | Cc1cc2ncn(-c3nnnn3-c3ccccc3)c2cc1C | 20 µM (inactive) | – | – | – | – | – | – | – | – | – | –
2 | CN1CCN(C(=S)C(=O)Nc2ccc(Br)cc2)CC1 | – | 6.57 µM (active) | 9.73 µM (active) | 5.11 µM (active) | > 158 µM (not active) | 8.52 µM (active) | 4 µM (active) | > 80 µM (inactive) | > 100 µM (inactive) | 0.386 µM (active) | 0.431 µM (active)
